Results from patent US9770478B2, “Method for inhibiting neuronal cell aggregation” (NATIONAL TAIWAN NORMAL UNIVERSITY, priority 2014, dated 2017).

Columns and labels:
293 ATXN3/Q75-GFP cells = experiment: ATXN3/Q75 aggregation assay, high-content analysis; assay type: cell-based, human
Description: Glycyrrhizin is metabolized to 18β-glycyrrhetinic acid by intestinal bacteria. Therefore, ATXN3/Q75 aggregation assay was further performed with different concentrations of the 18β-glycyrrhetinic acid (0.1˜10 μM) and SAHA (0.1 μM) by the aforementioned method, aggregation percentage was assessed by HCA system.

HEK-293 cells = experiment: IC50 cytotoxicity (MTT cell proliferation) / effective dose ratio
Description: H.; Kung, P. J.; Lin, T. H.; Wu, Y. C.; Wu, Y. R.; Chen, Y. C.; Lee-Chen, G. J.; Chen, C. […] Cell proliferation was measured based upon the reduction of 3-(4,5-dimethylthiazol-2-yl]-2,5-diphenyltetrazolium bromide (MTT). Briefly, 5×10^4 cells were plated into 48-well dishes, grown for 20 hr and treated with herbal extract (5˜30 mg/mL G. inflata or C. longa) or pure compound (100 nM˜1 mM AMGZ or licochalcone A). After one day, 20 μL MTT (5 mg/mL in PBS, Sigma) was added to cells and incubated for 2 hr. The absorbance of the insoluble purple formazan product was measured at 570 nm by a Bio-Tek μQuant Universal Microplate Spectrophotometer.
Then doxycycline (10 μg/mL, BD) and oxaliplatin (5 μM, Sigma) were added for 6 days.

[1] = tested on: SH-SY5Y ATXN3/Q75-GFP cells; experiment: ATXN3/Q75 aggregation assay in retinoic acid differentiated neuronal cells; assay type: cell-based, human; conditions: one week
Description: SH-SY5Y ATXN3/Q75-GFP cells were seeded in 6-well (2×10^5/well) plate, with all trans retinoic acid (10 μM, Sigma) added at seeding time. At day 2, cells were treated with G. inflata or C. longa extract (10 μg/mL), AMGZ (0.2 μM) or licochalcone A (2 nM) for 8 hr, and then doxycycline (5 μg/mL) was added to induce ATXN3/Q75-GFP expression. After one week, cells were stained with Hoechst 33342 and aggregation percentage was assessed as described. The morphologic differentiation of untreated cells including total outgrowth, processes, and branches was assessed by using HCA system.

[2] = DPPH free radical scavenging assay; assay type: biochemical; conditions: 100 μM DPPH; for EC50: 30 min, room temperature
Description: The free radical scavenging activities of tested compounds and herbal extracts were determined using the stable 1,1-diphenyl-2-picrylhydrazyl (DPPH, Sigma) free radical assay (see Li, N.; Liu, J. H.; Zhang, J.; Yu, B. Y. Comparative evaluation of cytotoxicity and antioxidative activity of 20 flavonoids. Journal of Agricultural and Food Chemistry 56:3876-3883; 2008) with some modifications. Briefly, radical scavenging activity was measured in an ethanol mixture containing 100 μM DPPH radical solution and tested compounds (10˜200 μM) or herbal extracts (0.2˜4 mg/mL) The mixture was vortexed for 15 sec and then left to stand at room temperature for 30 min. Then, the scavenging capacity was measured by monitoring the decrease in absorbance at 517 nm by a Thermo Scientific Multiskan GO Microplate Spectrophotometer. The radical scavenging activity was calculated using the formula: 1−(absorbance of sample/absorbance of control)×100%. The antioxidative activity expressed as EC50 was defined as the concentration of the compounds required for inhibition of the formation of DPPH radicals by 50%.

O=C(CCCCCCC(=O)Nc1ccccc1)NO [SAHA, suberoylanilide hydroxamic acid, reference compound]
ATXN3/Q75 aggregation as compared to untreated cells (293 ATXN3/Q75-GFP cells; 100 nM, 8 hr pretreatment, then doxycycline and oxaliplatin 6 days): 85%

C=CC(C)(C)c1cc(/C=C/C(=O)c2ccc(O)cc2)c(OC)cc1O [licochalcone A]
IC50 cytotoxicity/effective dose ratio (HEK-293 cells; human, 1 day): 3×10^5 | aggregation reduction in ATXN3/Q75 expressed neuronal cells ([1]; 2 nM): 10% | EC50 [2]: 121 µM

O=c1c(O)c(-c2ccc(O)cc2)oc2cc(O)cc(O)c12 [Kaempferol, reference compound]
EC50 [2]: 27 µM

CC1(C)[C@@H](O[C@H]2O[C@H](C(=O)O)[C@@H](O)[C@H](O)[C@H]2O[C@@H]2O[C@H](C(=O)O)[C@@H](O)[C@H](O)[C@H]2O)CC[C@]2(C)[C@H]3C(=O)C=C4[C@@H]5C[C@@](C)(C(=O)O)CC[C@]5(C)CC[C@@]4(C)[C@]3(C)CC[C@@H]12 [AMGZ, ammonium glycyrrhizinate]
IC50 cytotoxicity/effective dose ratio (HEK-293 cells; effective = reduced the ATXN3/Q75 aggregation to 85% or lower): > 10000 | aggregation reduction in ATXN3/Q75 expressed neuronal cells ([1]; 0.2 μM): 9% | DPPH scavenging activity ([2]; tested compounds 10˜200 μM): no detectable DPPH scavenging activity

CC1(C)[C@@H](O)CC[C@]2(C)[C@H]3C(=O)C=C4[C@@H]5C[C@@](C)(C(=O)O)CC[C@]5(C)CC[C@@]4(C)[C@]3(C)CC[C@@H]12 [18β-glycyrrhetinic acid]
ATXN3/Q75 aggregation as compared to untreated cells (293 ATXN3/Q75-GFP cells; 10 μM): 81%
